Laboratory results reported in ChEMBL document CHEMBL6078639, “Andrographolide: A promising therapeutic agent against organ fibrosis” (Eur J Med Chem, 2024).

Columns and labels:
Assay type in all cases: ADME, organism-based
Settings in all cases: in vivo
[1] = Oral bioavailability in Wistar rat at 20 mg/kg by LC-MS/MS analysis
[2] = Tmax in Wistar rat at 20 mg/kg, […] by LC-MS/MS analysis
[3] = Tmax in Wistar rat at 200 mg/kg, […] by LC-MS/MS analysis
[4] = Oral bioavailability in human

C=C1CC[C@@H]2[C@](C)(CO)[C@H](O)CC[C@@]2(C)[C@@H]1C/C=C1/C(=O)OC[C@H]1O [ANDROGRAPHOLIDE]
bioavailability [1]: 61.2%
Tmax [2]: 62.4 min
Tmax [3]: 39.6 min
bioavailability [4]: 2.67%
